In assay [1] the target is T1, purified recombinant human Aggrecanase-2 (Ag2t-Phe628-Strep) (Homo sapiens, UniProt Q9UNA0).
T1 construct: the form used is denoted as Ag2t-Phe628-Strep (MW=41,737)
T1 sequence (Q9UNA0 262-628): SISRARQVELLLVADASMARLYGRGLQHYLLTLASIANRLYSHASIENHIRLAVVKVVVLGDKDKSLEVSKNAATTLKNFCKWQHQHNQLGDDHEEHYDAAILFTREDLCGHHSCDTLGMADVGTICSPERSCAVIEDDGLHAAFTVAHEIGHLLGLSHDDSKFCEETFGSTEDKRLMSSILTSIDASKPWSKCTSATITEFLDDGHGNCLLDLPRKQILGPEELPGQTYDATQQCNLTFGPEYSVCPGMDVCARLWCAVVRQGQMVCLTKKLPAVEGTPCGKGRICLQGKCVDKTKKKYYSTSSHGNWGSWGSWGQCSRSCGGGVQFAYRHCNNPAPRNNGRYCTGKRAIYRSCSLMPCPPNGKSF
Description: In vitro fluorescence screen for Aggrecanase-2 inhibitors. The note with it: Table 3; for IC50: read-out: Agg 2 IC50; for Ki: read-out: Ki Agg2. It counts as biochemical.

Assay [2] has as its target T2, purified recombinant human Aggrecanase-1 (rAgg1) (Homo sapiens, UniProt O75173).
T2 sequence (O75173 213-837): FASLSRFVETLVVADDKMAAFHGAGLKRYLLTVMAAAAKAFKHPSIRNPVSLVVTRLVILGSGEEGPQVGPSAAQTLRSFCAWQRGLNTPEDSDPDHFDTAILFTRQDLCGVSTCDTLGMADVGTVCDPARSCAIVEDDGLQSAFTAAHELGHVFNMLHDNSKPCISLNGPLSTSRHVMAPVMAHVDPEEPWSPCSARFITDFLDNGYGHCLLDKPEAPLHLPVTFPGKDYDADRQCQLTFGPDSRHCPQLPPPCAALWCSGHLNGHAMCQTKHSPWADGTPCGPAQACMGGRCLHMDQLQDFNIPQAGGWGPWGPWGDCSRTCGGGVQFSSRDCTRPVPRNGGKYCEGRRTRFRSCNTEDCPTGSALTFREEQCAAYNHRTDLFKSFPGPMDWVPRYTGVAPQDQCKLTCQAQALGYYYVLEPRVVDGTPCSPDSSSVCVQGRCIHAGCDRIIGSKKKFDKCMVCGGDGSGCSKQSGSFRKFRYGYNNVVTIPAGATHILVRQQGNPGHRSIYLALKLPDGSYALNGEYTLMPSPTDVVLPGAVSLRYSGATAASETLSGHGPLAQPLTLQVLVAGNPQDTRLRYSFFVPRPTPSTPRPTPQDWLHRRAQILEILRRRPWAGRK
Description: In vitro fluorescence screen for Aggrecanase-1 inhibitors. It counts as biochemical. The note with it: Table 3; for IC50: read-out: Agg1 IC50; for Ki: read-out: Ki Agg1.

The target of another assay is T3, recombinant human MMP-2 (Homo sapiens, UniProt P08253).
T3 sequence (P08253 110-660): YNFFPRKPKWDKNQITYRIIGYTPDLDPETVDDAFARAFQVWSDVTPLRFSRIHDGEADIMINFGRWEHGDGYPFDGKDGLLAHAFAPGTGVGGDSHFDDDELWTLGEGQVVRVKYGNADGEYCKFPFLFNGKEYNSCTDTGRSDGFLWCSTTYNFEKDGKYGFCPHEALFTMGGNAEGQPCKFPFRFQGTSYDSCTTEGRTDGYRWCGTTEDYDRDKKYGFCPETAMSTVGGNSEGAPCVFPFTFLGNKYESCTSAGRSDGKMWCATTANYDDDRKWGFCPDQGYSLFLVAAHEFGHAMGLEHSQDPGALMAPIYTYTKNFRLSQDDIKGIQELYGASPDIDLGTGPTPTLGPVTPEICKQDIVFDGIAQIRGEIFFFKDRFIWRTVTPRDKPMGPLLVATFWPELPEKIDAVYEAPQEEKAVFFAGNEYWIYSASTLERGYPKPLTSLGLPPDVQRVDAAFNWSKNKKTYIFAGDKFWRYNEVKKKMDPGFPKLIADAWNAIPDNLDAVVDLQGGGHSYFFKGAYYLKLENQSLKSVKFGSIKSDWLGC
Description: In vitro fluorescence assay of MMP-2 activity.

Another assay has as its target MMP-12 (Homo sapiens, UniProt P39900). The experiment in a line: MMP-12 of Table 3. It counts as biochemical. The note with it: unit inferred.
Assay [3] has as its system Aggrecanase-mediated aggrecan cleavage in human OA cartilage explants. Description: Human osteoarthritic cartilage explant efficacy study (BC3 western analysis). It counts as cell-based. Conditions: for EC50: 144 h, read-out: EC50 (inhibition of aggrecanase generated aggrecan fragments). From the text: Human OA Cartilage Explant Culture: Discarded tissues from consented knee replacement patients were obtained from New England Baptist Hospital (Brookline, Mass.) in sterile phosphate buffered saline (PBS) after about 2-4 hrs post surgery. Cartilage slices were harvested from the knee specimens and washed several times in PBS. These cartilage slices were cut into appropriate pieces (6-8 mm) and rinsed in PBS and then in media and further cultured for additional days as cartilage explants. The medium consisted of Dulbecco's Modified Eagle's medium (DMEM, JRH Biosciences, Lenexa, Kans.), 50 μg/ml ascorbic acid (Wako, Osaka, Japan), 10 mM HEPES, pH 7.0 (Mediatech, Herndon, Va.), 2 mM L-glutamine (Mediatech), 100 U/ml antibiotic-antimycotic solution (Mediatech).
Test compounds: The test compounds are described in Examples 8OO, 8NNNNNNN, and 8WWWWWWW. Stock solutions of the compounds were prepared at 1 mg/ml in DMSO, aliquoted and stored at −20° C. Working solutions of the compounds were made in DMSO and added to the culture for efficacy studies.
Efficacy study: Cartilage explants were cultured for 2-3 days in DMEM medium in a 37° C. and 5% CO2 environment to equilibrate the tissue. Explants were weighed (˜250 mg) and placed in wells of a 24-well culture dish in 1 ml of medium and 3 replicates per treatment group. For the efficacy study, cartilage explants were cultured for 6 days in the presence or absence of various concentrations of the test compound. The media was replaced on day 3 and the experiment was terminated on day 6. Total aggrecan content of conditioned media was measured by a colorimetric assay with DMMB (Farndale, R W et al., Biochim Biophys Acta. 1986, 883, 173-177).
Western analysis: Aggrecan fragments in conditioned medium were analyzed by western analysis using neoepitope antibody, BC-3 designed to recognize the Aggrecanase-generated N-terminal interglobular neoepitope ^374ARGS. Equal cartilage weight equivalent conditioned media from each replicate well per treatment group was pooled and digested with Chondroitinase ABC (Sigma, St Louis, Mo.), Keratinase I (Seikagaku America, Falmouth, Mass.) and Keratinase II (Seikagaku America, Falmouth, Mass.) for 2 h at 37° C. Samples were concentrated by YM-10 centrifugal filter device (Millipore Corp., Bedford, Mass.), lyophilized and reconstituted with equal volume of water. Samples were separated under reducing conditions on 4-12% gradient Tris-glycine gels (Invitrogen, Carlsbad, Calif.). Proteins from the gels were transferred to nitrocellulose membranes. Immunoblots were probed using Mab BC-3 (Abcam, Cambridge, Mass.). Incubation with primary and alkaline-phosphatase-conjugated secondary goat anti-mouse IgG (Promega Corp., Madison, Wis.) was performed overnight at 4° C. and at room temperature for 1 h, respectively. The immunoblots were incubated with NBT/BCIP substrate (Promega Corp., Madison, Wis.) at room temperature to achieve optimum color development. The aggrecan fragments containing the ARGS neoepitope were quantitated by densitometry analysis and the percentage inhibition of aggrecan degradation by test compounds was determined.

The target in a further assay is MMP-8 (Homo sapiens, UniProt P22894). The experiment in a line: MMP-8 of Table 3. Conditions: unit inferred. Type of assay: biochemical.
Chain of MMP-8 (P22894 101-467, species assumed): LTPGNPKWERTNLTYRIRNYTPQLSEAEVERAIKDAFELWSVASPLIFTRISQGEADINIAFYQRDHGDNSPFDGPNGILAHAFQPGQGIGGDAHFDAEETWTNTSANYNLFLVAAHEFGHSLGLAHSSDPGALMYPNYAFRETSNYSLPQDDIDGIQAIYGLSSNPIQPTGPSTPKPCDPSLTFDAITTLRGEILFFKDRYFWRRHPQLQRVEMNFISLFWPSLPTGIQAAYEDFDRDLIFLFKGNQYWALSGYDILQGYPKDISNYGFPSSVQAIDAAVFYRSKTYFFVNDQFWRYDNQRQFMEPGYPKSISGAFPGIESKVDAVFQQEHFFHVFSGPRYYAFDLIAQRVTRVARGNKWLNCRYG
Setting [4] is: Homo sapiens, read-out: % inhibition (BC3 analysis).

In brackets after ≈: the same amount, converted by molar mass. Where two headings read alike, the source gives them in different places.

Chain of MMP-12 (P39900 106-470): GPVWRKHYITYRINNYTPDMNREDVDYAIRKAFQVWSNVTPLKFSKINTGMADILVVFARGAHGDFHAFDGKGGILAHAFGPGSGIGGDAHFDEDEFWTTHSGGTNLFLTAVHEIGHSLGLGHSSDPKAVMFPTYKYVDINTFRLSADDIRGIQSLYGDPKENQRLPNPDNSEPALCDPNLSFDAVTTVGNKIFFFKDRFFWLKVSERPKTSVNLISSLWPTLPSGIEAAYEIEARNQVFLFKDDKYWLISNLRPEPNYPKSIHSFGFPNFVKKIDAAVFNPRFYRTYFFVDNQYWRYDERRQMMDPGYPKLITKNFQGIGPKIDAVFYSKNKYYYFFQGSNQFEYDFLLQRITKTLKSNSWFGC

`CC(C)(Cc1ccc(F)cc1)NC(=O)[C@H](CCC(=O)O)NC(=O)c1ccc(-c2cccs2)cc1` [Example 8NNNNNNN, N-[2-(4-fluorophenyl)-1,1-dimethylethyl]-N^2-[4-(2-thienyl)benzoyl]-L-α-glutamine]: the IC50 in assay [1] is less than 30 nM; in assay [2], less than 30 nM; at recombinant human MMP-2 it was 2150 nM; at MMP-12, 680 nM; against MMP-8, 1210 nM. For the same molecule, the Ki in assay [1] is 37 nM; in assay [2], less than 3 nM. Further, the half-maximal effective concentration (EC50) in assay [3] (human OA cartilage explants, 6 days, BC3 analysis) was less than 0.04 µg/mL. Moreover, the inhibition at 0.04 µg/mL in assay [3] (Homo sapiens, 0.04 ug/ml, average of 4 donors, read-out: % inhibition (BC3 analysis)) stood at 70.2%. In addition, the inhibition at 0.08 µg/mL in assay [3] (Homo sapiens, 0.08 ug/ml, average of 4 donors, read-out: % inhibition (BC3 analysis)) was determined as 84.5%. In assay [3] (Homo sapiens, 0.15 ug/ml, average of 4 donors, read-out: % inhibition (BC3 analysis)), the inhibition at 0.15 µg/mL was determined as 66.7%. The inhibition at 0.3 µg/mL in assay [3] (Homo sapiens, 0.3 ug/ml, average of 4 donors, read-out: % inhibition (BC3 analysis)) was 73.1%. Moreover, in assay [3] (Homo sapiens, 0.6 ug/ml, average of 4 donors, read-out: % inhibition (BC3 analysis)), the inhibition at 0.6 µg/mL was 98.9%. Further, in assay [3] (Homo sapiens, 1.25 ug/ml, average of 4 donors, read-out: % inhibition (BC3 analysis)), the inhibition at 1.25 µg/mL turned out to be 99.4%. For the same molecule, the inhibition at 2.5 µg/mL in assay [3] (Homo sapiens, 2.5 ug/ml, average of 4 donors) was determined as 98.7%. In assay [3] (Homo sapiens, 5 ug/ml, average of 4 donors), the inhibition at 5 µg/mL worked out at 100%. In assay [3] (Homo sapiens, 10 ug/ml, average of 4 donors), the inhibition at 10 µg/mL was determined as 101%.
With `CC(C)(Cc1ccc(F)cc1)NC(=O)[C@H](CCC(=O)O)NC(=O)c1ccc(-c2ccc(Cl)s2)cc1` [Example 8WWWWWWW, N^2-[4-(5-chloro-2-thienyl)benzoyl]-N-[2-(4-fluorophenyl)-1,1-dimethylethyl]-L-α-glutamine], in assay [1], the IC50 was 50 nM and the Ki turned out to be 42 nM. In assay [2], the IC50 is less than 30 nM and the inhibition constant Ki is less than 3 nM. For the same molecule, at recombinant human MMP-2, the 50% inhibitory concentration (IC50) turned out to be 1080 nM. The molecule further showed an IC50 at MMP-12 of 630 nM. Moreover, the EC50 in assay [3] (Homo sapiens) lay within 0.04 to 0.16 µg/mL (≈ 0.0774 to 0.309 µM). Moreover, in assay [3] (setting [4]), the inhibition at 0.01 µg/mL stood at 2.85%, the inhibition at 0.02 µg/mL amounted to 46.4%, the inhibition at 0.04 µg/mL is 23.5% and the inhibition at 0.08 µg/mL is 76.9%. For the same molecule, in assay [3] (setting [4]), the inhibition at 0.15 µg/mL came to 88.5%, the inhibition at 0.3 µg/mL worked out at 95%, the inhibition at 0.6 µg/mL worked out at 98% and the inhibition at 1.25 µg/mL worked out at 100%. 370 nM corresponded to half-maximal inhibition against MMP-8 (IC50).
`CC(C)(Cc1ccc(F)cc1)NC(=O)[C@H](CCC(=O)O)NC(=O)c1ccc(-c2ccc(Cl)s2)nc1` [N^2-{[6-(5-chloro-2-thienyl)pyridin-3-yl]carbonyl}-N-[2-(4-fluorophenyl)-1,1-dimethylethyl]-L-α-glutamine]: the IC50 is greater than 300 nM in assay [1]; less than 30 nM in assay [2]; 1300 nM on recombinant human MMP-2; greater than 10000 nM against MMP-12; greater than 5000 nM against MMP-8. The Ki came out at 723 nM in assay [1] and 42 nM in assay [2].

As a reminder, the IC50 is the concentration at which inhibition is half-maximal. The term Ki denotes a dissociation constant, usually derived from enzyme kinetics or from competition with a known ligand. In general, EC50 refers to the concentration at which the effect is half-maximal. By inhibition is commonly meant the relative decrease from the control value, in per cent.

These data come from patent US7998965B2, “Glutamate aggrecanase inhibitors” (Wyeth LLC, priority 2005, dated 2011).
